# Assay results: patent publication US6723710B2, “Compositions for inhibiting arginase activity” (The Trustees of the University of Pennsylvania, priority 1997, dated 2004)
# “Also recorded” adds a separate entry of the source.
# Assays:
# NO synthase = biological target: T1, NO synthase (Homo sapiens, UniProt P29475); test: Nitric Oxide Synthase-ABHA assay (NO2-/NO3- production); format: biochemical; details: 0.1 millimolar or 1.0 millimolar ABHA
# T1 construct: purchased Biomol
# Text: NADPH, FAD, FMN, L-arginine, N-(2-hydroxyethyl)piperazine-N-2-ethanesulfonic acid (HEPES) (6R)-5,6,7,8-tetrahydro-L-biopterin (BH4), aminoguanidine, CaCl2, and phosphodiesterase cyclic nucleotide activator (calmodulin) were purchased from Sigma Chemical Company (St. Louis, Mo.). Neuronal NO synthase was purchased from Biomol, dialyzed to remove beta-mercaptoethanol, and concentrated to 0.1 milligram per milliliter. The nitric oxide synthase colorimetric assay kit was purchased from Calbiochem. Materials were used without further purification. The effect of ABHA on NO synthesis was assayed by monitoring the sum of NO2^− and NO3^− production, as described (Verdon et al., 1995, Anal. Biochem. 224:502-508). The enzyme solution was shaken at 37° C. for 15 minutes with 50 millimolar HEPES (pH 7.5), 100 micromolar NADPH, 4 micromolar FAD, 4 micromolar FMN, 6 micromolar BH4, 100 micromolar L-arginine, 0.0-1.0 millimolar ABHA, and 0.02 milligram per milliliter NO synthase in a final volume of 100 microliters. For experiments in which neuronal NO synthase was used, 1 millimolar CaCl2 and 100 micrograms per milliliter calmodulin were also added. Reactions were stopped by incubating the reaction mixture at 100° C. for 3 minutes. […] Absorbance at 540 nanometers was used to quantify the extent of NOx production.
# rat liver arginase = biological target: T2, rat liver arginase (Rattus norvegicus, UniProt P07824); test: continuous chromogenic arginase assay with substrate 1-nitro-3-guanidinobenzene (compound 18); format: biochemical; set-up: made in house; details: 2 millimolar compound 18 as substrate; pseudo-turnover number, smaller = better inhibition
# T2 sequence (P07824 1-323): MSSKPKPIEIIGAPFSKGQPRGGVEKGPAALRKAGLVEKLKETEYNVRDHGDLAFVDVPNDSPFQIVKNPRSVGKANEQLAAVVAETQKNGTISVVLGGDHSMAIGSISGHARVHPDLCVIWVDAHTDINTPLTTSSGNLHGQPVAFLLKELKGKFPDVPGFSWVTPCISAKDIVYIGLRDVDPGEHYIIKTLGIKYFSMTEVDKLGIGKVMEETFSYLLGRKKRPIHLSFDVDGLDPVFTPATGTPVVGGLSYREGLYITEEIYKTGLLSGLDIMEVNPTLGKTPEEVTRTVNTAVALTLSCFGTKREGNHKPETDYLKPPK
# Description: The activity of wild-type arginase was monitored spectrophotometrically using a Pharmacia BIOTECH ULTROSPEC™ 2000. Assays were performed in a solution comprising 100 micromolar MnCl2 and 50 millimolar bicine-NaOH (pH 9.0). […] Eadie-Hofstee plots were used to analyze the data.
# arginase [1] = biological target: T3, arginase (Rattus norvegicus, UniProt P07824); test: dialysis/dilution reversibility experiments with pre-incubated arginase-inhibitor complex; format: biochemical; set-up: made in house
# T3 sequence (P07824 1-323): T2 sequence (P07824 1-323)
# Description: Dialysis experiments of arginase with the arginase-compound 7 and arginase-compound 15 complexes were performed in following way. Thirty microliters of arginase at a concentration of 11.2 milligrams per milliliter were pre-incubated for thirty minutes with an appropriate concentration of compound 7 (5 microliters of 100 micromolar stock solution). […] Pre-incubates were then added to bicine buffer containing 4 millimolar compound 18. The final volume of the assay reaction solution was 1 milliliter.
# arginase [2] = biological target: T3, arginase; test: isothermal titration calorimetry; format: binding; set-up: made in house
# Description: All calorimetry experiments were conducted on a MCS isothermal calorimeter from MicroCal, Inc. (Northampton, Mass.). Arginase was exhaustively dialyzed against a solution comprising 100 micromolar MnCl2 and 50 millimolar bicine-NaOH (pH 8.5). […] Prior to the titration experiment, samples were de-gassed under vacuum for 5 minutes. […] The contents of the sample cell were titrated with 30-40 aliquots (2.5 microliters each) of inhibitor (an initial 1 microliters injection was made, but not used in data analysis). After each injection, the heat change was measured and converted to the corresponding enthalpy value. The reaction mixture was continuously stirred at 400 rotations per minute during titration. Control experiments were carried out by titrating the inhibitor into the buffer solution under identical experimental conditions. Data analysis was performed using ORIGIN™ software provided with the instrument. The calorimetric data are presented with the background titrations subtracted from the experimental data. The amount of heat produced per injection was calculated by integration of the area under each peak. The data were fit to the following equation, […]
# arginase [3] = biological target: T3, arginase; test: biochemical; details: Kd from competition binding experiments using N-hydroxyarginine, pH 7.5 and pH 9.0
# Description: Additional evidence for high affinity binding of arginase and ABHA was derived from competition binding experiments using ABHA and N-hydroxyarginine, as monitored by fluorescence spectroscopy. Addition of N-hydroxyarginine to a solution of arginase results in a significant decrease in intrinsic protein fluorescence at 327 nanometers.
# T1 sequence (P29475 whole entry): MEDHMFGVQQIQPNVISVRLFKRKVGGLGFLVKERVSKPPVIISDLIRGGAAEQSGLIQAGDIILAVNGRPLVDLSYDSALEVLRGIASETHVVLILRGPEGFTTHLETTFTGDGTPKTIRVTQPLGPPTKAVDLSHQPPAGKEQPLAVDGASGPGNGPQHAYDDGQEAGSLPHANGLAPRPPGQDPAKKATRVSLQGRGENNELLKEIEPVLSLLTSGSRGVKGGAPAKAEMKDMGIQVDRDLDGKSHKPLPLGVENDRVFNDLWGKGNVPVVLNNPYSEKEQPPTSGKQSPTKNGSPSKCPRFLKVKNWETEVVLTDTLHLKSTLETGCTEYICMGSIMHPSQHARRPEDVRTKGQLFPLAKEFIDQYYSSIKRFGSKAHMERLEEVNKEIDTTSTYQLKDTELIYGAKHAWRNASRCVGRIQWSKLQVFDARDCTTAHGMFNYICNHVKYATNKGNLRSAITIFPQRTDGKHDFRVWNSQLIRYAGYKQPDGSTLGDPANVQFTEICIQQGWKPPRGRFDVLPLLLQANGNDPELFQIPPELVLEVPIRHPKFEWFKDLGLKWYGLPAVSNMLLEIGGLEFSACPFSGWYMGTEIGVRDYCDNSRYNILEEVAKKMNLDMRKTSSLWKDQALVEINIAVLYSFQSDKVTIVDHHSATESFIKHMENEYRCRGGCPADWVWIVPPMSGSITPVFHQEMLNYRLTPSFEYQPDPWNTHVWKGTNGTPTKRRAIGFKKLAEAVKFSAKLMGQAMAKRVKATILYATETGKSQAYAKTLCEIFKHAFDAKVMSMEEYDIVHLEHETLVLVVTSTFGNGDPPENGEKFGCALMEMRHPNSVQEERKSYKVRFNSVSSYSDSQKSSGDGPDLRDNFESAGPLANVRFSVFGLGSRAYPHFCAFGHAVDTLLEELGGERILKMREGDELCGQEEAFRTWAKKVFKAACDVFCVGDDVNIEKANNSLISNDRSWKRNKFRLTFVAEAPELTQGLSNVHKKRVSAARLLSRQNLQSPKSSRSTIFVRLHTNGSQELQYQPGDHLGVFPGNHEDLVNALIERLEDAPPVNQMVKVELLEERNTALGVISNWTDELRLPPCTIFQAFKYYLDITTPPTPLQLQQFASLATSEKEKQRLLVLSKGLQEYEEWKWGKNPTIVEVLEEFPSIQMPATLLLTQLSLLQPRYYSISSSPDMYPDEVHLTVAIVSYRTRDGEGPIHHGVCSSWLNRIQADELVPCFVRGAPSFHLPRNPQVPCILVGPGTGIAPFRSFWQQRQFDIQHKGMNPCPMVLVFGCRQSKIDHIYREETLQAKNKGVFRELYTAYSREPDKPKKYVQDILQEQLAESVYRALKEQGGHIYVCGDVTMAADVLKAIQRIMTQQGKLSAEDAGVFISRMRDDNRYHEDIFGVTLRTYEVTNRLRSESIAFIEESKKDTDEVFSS
structure (smiles),measurement,setting,value
"N[C@@H](CCCCB(O)O)C(=O)O [compound 7, 2(S)-amino-6-boronohexanoic acid]",inhibition of NO synthase,NO synthase,does not inhibit NO synthase; also recorded: no inhibition
same,tnpseudo (moles of inhibitor/mole of arginase),rat liver arginase,0.7 ± 0.1 moles of inhibitor/mole of arginase
same,"inhibited velocity, control without pre-incubation","arginase [1]; 9.6 micromolar arginase, 0.5 micromolar ABHA",0.47 micromolar per minute
same,reversibility of inhibition,arginase [1]; 30 minutes pre-incubation,reversible inhibitor
same,"observed inhibited velocity, diluted pre-incubate","arginase [1]; 30 minutes pre-incubation, diluted to 0.5 micromolar ABHA and 9.6 micromolar arginase",0.46 micromolar per minute
same,reversibility of inhibition,"arginase [1]; 30 minutes pre-incubation, listed as ABHA",completely instantaneous reversible inhibition
same,Kd,"arginase [2]; 100 micromolar MnCl2, 50 millimolar bicine pH 8.5, 25° C., read-out: Kd determined by titration calorimetry",110 nM
same,association constant (Ka),"arginase [2]; pH 8.5, 25° C.",8.89×10^6 inverse molar
same,enthalpy change (ΔH) of binding,"arginase [2]; pH 8.5, 25° C.",−12.97 kilocalories per mole
same,"stoichiometry (n), moles bound per mole of arginase monomer","arginase [2]; pH 8.5, 25° C.",1.07
same,Kd,arginase [3],≤ 100 nM
